Laboratory results: the supplement of paper PMC10949913

Key:
CU-ACC1 = test: area under concentration-response curve (viability) (AUC (a.u.)); higher = less active; conditions: 48 h
Method in brief: (§1)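 Luminescence from CellTiter-Glo, read after 48 h, measured three adrenocortical carcinoma cell lines treated in 1,536-well plates with library compounds at 11 concentrations. Values were normalised per plate to vehicle and empty-well controls. The AC50 and area under the curve come from fitted concentration-response curves in inhibitory or non-responding classes only.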

CU-ACC2 = test: as above; conditions: 48 h
Method in brief: as §1

N#Cc1ccc(NC(=O)Nc2ccccc2Br)c2nn[nH]c12
area under concentration-response curve (CU-ACC1): 573 | area under concentration-response curve (CU-ACC2): 638

NC(=O)c1ccc(I)c([N+](=O)[O-])c1
area under concentration-response curve (CU-ACC1): 549 | area under concentration-response curve (CU-ACC2): 583

CN(Cc1cc(Br)cc(Br)c1N)C1CCCCC1
area under concentration-response curve (CU-ACC1): 383 | area under concentration-response curve (CU-ACC2): 526

Cn1cc(C[C@@H](N)C(=O)O)c2ccccc21
area under concentration-response curve (CU-ACC1): 619 | area under concentration-response curve (CU-ACC2): 658

CC(=O)Oc1cc2c(s1)CCN(C(C(=O)C1CC1)c1ccccc1F)C2 (stereo not drawn)
area under concentration-response curve (CU-ACC1): 492 | area under concentration-response curve (CU-ACC2): 476

CCC(C)(C)c1ccc(CC(C)CN2C[C@@H](C)O[C@@H](C)C2)cc1 (stereo partly drawn)
area under concentration-response curve (CU-ACC1): 462 | area under concentration-response curve (CU-ACC2): 504

COC1=CC2=C(OC\C(=C2\C3=CC=C(F)C=C3)CN4CCCC4)C=C1
area under concentration-response curve (CU-ACC1): 500 | area under concentration-response curve (CU-ACC2): 560

CN[C@H]1CN(C[C@@H]1OC)C2=NC3=C(C=C2)C(=O)C(=C\N3C4=NC=CS4)/C(O)=O
area under concentration-response curve (CU-ACC1): 530 | area under concentration-response curve (CU-ACC2): 632

CC(C)(O)CCc1ccc(OCc2cc(-c3cccc(OC(F)F)c3)c3ncccc3c2)cc1
area under concentration-response curve (CU-ACC1): 543 | area under concentration-response curve (CU-ACC2): 586

CC1(N)CCN(c2cccnc2NC(=O)c2nc(-c3ncccc3C(F)(F)F)cnc2N)CC1
area under concentration-response curve (CU-ACC1): 430 | area under concentration-response curve (CU-ACC2): 509

C[C@H]1[C@H](O)[C@@H](C)/C=C/C=C/CC/C=C/C=C/C=C/C=C/[C@H](O[C@@H]2O[C@H](C)[C@@H](O)[C@H](N)[C@@H]2O)C[C@@H]2O[C@](O)(C[C@@H](O)[C@H](O)CC[C@@H](O)C[C@@H](O)C[C@@H](O)CC(=O)O[C@H]1C)C[C@H](O)[C@H]2C(=O)O
area under concentration-response curve (CU-ACC1): 375 | area under concentration-response curve (CU-ACC2): 426

CCN(c1ccccc1)c1cc(NC)[n+](C)c(C)n1
area under concentration-response curve (CU-ACC1): 574 | area under concentration-response curve (CU-ACC2): 600

CC/C(=C(/c1ccc(/C=C/C(=O)O)cc1)c1ccc2[nH]ncc2c1)c1ccc(F)cc1Cl
area under concentration-response curve (CU-ACC1): 501 | area under concentration-response curve (CU-ACC2): 508

ClC1=CC=C(C=C1)C(C#N)C2=C(Cl)C=C(C=C2Cl)N3\N=C/C(=O)NC3=O (stereo not drawn)
area under concentration-response curve (CU-ACC1): 524 | area under concentration-response curve (CU-ACC2): 626

CC(C)c1ccc2oc3nc(N)c(C(=O)O)cc3c(=O)c2c1
area under concentration-response curve (CU-ACC1): 543 | area under concentration-response curve (CU-ACC2): 606

OC[C@H]1O[C@@H](O[C@@H]2O\C=C(/[C@H]3C\C=C(CO)/[C@@H]23)C(O)=O)[C@H](O)[C@@H](O)[C@@H]1O
area under concentration-response curve (CU-ACC1): 538 | area under concentration-response curve (CU-ACC2): 594

CN1CCc2c(c3ccccc3n2Cc2ccc(C(=O)NO)cc2)C1
area under concentration-response curve (CU-ACC1): 553 | area under concentration-response curve (CU-ACC2): 595

CC[C@@]1([C@@H]2O[C@@H]([C@H]3O[C@@](O)(CO)[C@H](C)C[C@@H]3C)C[C@@H]2C)CC[C@H]([C@]2(C)CC[C@]3(C[C@H](O)[C@@H](C)[C@@H]([C@@H](C)[C@@H](OC)[C@H](C)C(=O)[O-])O3)O2)O1
area under concentration-response curve (CU-ACC1): 427 | area under concentration-response curve (CU-ACC2): 410

O=C1CC(c2c[nH]c3ccc(F)cc23)C(=O)N1 (stereo not drawn)
area under concentration-response curve (CU-ACC1): 465 | area under concentration-response curve (CU-ACC2): 424

O=C(Oc1ccc([N+](=O)[O-])cc1)N1CCN(Cc2cccc(Oc3ccccc3)c2)CC1
area under concentration-response curve (CU-ACC1): 531 | area under concentration-response curve (CU-ACC2): 556

Cc1cccc(N(C)C(=S)Oc2ccc3ccccc3c2)c1
area under concentration-response curve (CU-ACC1): 428 | area under concentration-response curve (CU-ACC2): 497

COC1=C(CN(C)C)C=C(OC)C(=C1)C/2=C/N(C)C(=O)C3=C2C=CN=C3
area under concentration-response curve (CU-ACC1): 516 | area under concentration-response curve (CU-ACC2): 597

CCCCOc1ccc(C(=O)Nc2ccc(F)cc2F)cc1
area under concentration-response curve (CU-ACC1): 514 | area under concentration-response curve (CU-ACC2): 586

C=CC(=O)N[C@H]1CN(c2nc(Nc3cn(C)nc3OC)c3ncn(C)c3n2)C[C@@H]1F
area under concentration-response curve (CU-ACC1): 401 | area under concentration-response curve (CU-ACC2): 422

CC1=C(/C=C/C(C)=C/C=C/C(C)=C\C(=O)O)C(C)(C)CCC1
area under concentration-response curve (CU-ACC1): 491 | area under concentration-response curve (CU-ACC2): 586

c1ccc2c(Cc3c[nH]c4ccccc34)c[nH]c2c1
area under concentration-response curve (CU-ACC1): 505 | area under concentration-response curve (CU-ACC2): 574

C[C@H](NC(=O)C1=C2N=CC=C[N]2N=C1N)\C3=C\C4=CC=CC(=C4C(=O)N3C5=CC=CC=C5)C#CC6=C[N](C)N=C6
area under concentration-response curve (CU-ACC1): 511 | area under concentration-response curve (CU-ACC2): 608

CCOCc1nc2c(N)nc3ccccc3c2n1CC(C)(C)O
area under concentration-response curve (CU-ACC1): 510 | area under concentration-response curve (CU-ACC2): 562

CNC(=O)c1ccc(N2C(=S)N(c3cnc(C#N)c(C(F)(F)F)c3)C(=O)C23CCC3)cc1F
area under concentration-response curve (CU-ACC1): 505 | area under concentration-response curve (CU-ACC2): 565
